Tested on: T1, pPPO (purified kudzu polyphenol oxidase)
T1 construct: gene PPO; single prominent SDS-PAGE band approx. 21 kDa
Assay: UV-visible spectrophotometry at […] nm, Lineweaver-Burk
Type: biochemical, Pueraria montana var. lobata
Settings: catechol oxidation; activity assay in McIlvaine buffer pH 5.0, 25 °C

Compound: Oc1ccccc1O [catechol]
- Km: 23.5 mM
